Reference: ChEMBL document CHEMBL1123976, “Synthesis and pharmacological characterization of 1-phenyl-, 4-phenyl-, and 1-benzyl-1,2,3,4-tetrahydroisoquinolines as dopamine receptor ligands” (J Med Chem, 1988)

How the values were obtained:
[1] = Inhibition of Dopamine-stimulated adenylate cyclase obtained from rat corpus striatum was determined by the conversion of [32P]ATP to [32P]-cAMP
D(1A) dopamine receptor = D(1A) dopamine receptor (Rattus norvegicus, UniProt P18901)
D(2) dopamine receptor = D(2) dopamine receptor (Rattus norvegicus, UniProt P61169)
Chain of D(2) dopamine receptor (P61169 whole entry): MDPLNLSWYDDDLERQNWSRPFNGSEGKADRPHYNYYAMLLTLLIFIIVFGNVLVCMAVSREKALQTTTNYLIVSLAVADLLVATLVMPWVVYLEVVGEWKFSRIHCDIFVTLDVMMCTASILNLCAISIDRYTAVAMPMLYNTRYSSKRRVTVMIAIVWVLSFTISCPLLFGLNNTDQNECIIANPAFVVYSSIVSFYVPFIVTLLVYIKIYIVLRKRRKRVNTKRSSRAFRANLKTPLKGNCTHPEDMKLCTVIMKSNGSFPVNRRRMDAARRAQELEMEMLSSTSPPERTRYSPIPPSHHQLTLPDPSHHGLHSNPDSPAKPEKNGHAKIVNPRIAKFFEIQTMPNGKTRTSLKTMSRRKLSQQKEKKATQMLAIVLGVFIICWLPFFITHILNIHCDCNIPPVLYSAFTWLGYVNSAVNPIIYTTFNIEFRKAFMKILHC
Description: Inhibition of [3H]spiperone binding to Dopamine receptor D2 at 0.02 nM

Chain of D(1A) dopamine receptor (P18901 whole entry): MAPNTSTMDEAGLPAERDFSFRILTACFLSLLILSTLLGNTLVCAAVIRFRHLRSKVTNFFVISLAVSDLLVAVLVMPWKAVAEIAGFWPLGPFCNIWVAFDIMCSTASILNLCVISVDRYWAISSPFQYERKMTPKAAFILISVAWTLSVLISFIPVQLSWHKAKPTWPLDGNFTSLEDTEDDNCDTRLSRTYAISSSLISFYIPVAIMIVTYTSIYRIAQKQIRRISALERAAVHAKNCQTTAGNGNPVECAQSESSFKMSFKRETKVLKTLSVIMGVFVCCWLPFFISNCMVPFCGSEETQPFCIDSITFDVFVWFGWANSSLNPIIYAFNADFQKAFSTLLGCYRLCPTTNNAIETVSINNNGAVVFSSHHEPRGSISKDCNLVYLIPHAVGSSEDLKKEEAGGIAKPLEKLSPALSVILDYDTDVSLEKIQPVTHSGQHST

| SMILES | Ki [1] | Ki (D(1A) dopamine receptor) | Ki (D(2) dopamine receptor) |
| --- | --- | --- | --- |
| CN1CCc2cc(Cl)c(O)cc2C1c1ccccc1 (racemic) | 8.98 nM | 12.5 nM | 915 nM |
| Oc1cc2c(cc1Cl)CNCC2c1ccccc1 (racemic) |  | 565 nM | 3620 nM |
| CCCN1CCc2cc(Cl)c(O)cc2[C@@H]1c1ccccc1 |  | 179 nM | 1900 nM |
| CN1Cc2cc(Cl)c(O)cc2C(c2ccccc2)C1 (racemic) |  | 174 nM | 522 nM |
| Oc1cc2c(cc1Cl)CCNCC2c1ccccc1 (stereo unspecified) |  | 2.35 nM | 676 nM |
| CN1CCc2cc(Cl)c(O)cc2[C@@H]1c1ccccc1 |  | 6.6 nM | 1850 nM |
| CN1CCc2cc(Cl)c(O)cc2C1Cc1ccccc1 (racemic) |  | 53.2 nM | 287 nM |
| Oc1cc2c(cc1Cl)CCN[C@@H]2c1ccccc1 |  | 743 nM | 26300 nM |
| Oc1cc2c(cc1Cl)CCN[C@H]2c1ccccc1 |  | 140 nM | 3750 nM |
| CN1CCc2cc(Cl)c(O)cc2[C@H]1c1ccccc1 |  | 442 nM | 19200 nM |
